The values below come from PMC8348780, “Preparation and Evaluation of Novel Folate Isonitrile ^99mTc Complexes as Potential Tumor Imaging Agents to Target Folate Receptors” (Molecules, 2021).

The subject of one data set is KB tumor-bearing mice. Kind of data set: Biodistribution study in KB tumor-bearing mice. The note with it: 2 h p.i., labeled under weak acid condition (before the pH was changed to weakly alkaline). It counts as in vivo, BALB/c nude mice. The protocol:
The biodistribution experiments were divided into normal groups and inhibition groups (n = 3), in which the inhibition group was injected with inhibitor (about 4 × 10^4 µg/kg) 30 min in advance. The KB tumor-bearing mice were decapitated 30 and 120 min after the tail vein injection of 0.1 mL labeled solution (about 7.4 × 10^4 Bq). The heart, liver, lung, kidney, spleen, stomach, bone, muscle, intestine, tumor, blood, and other related tissues and organs were wiped clean and weighed, and the radioactivity count was measured. Each tissue per gram of injection dose (%ID/g) was calculated.

Data set [1] in a line: Solubility of the ligand in the labeling solution. It is filed as physicochemical. The note with it: labeling solution under weak acid.

`[C-]#[N+]CCCCCC(=O)NCCNC(=O)CC[C@H](NC(=O)c1ccc(NCc2cnc3nc(N)[nH]c(=O)c3n2)cc1)C(=O)O` [CN5FA, N^2-(4-(((2-Amino-4-oxo-3,4-dihydropteridin-6-yl)methyl)amino)benzoyl)-N^5-(2-(6-isocyanohexanamido)ethyl)-L-glutamine] displayed a Liver uptake with KB tumor-bearing mice of 52.35 ± 1.19 %ID/g. Besides, the Solubility of ligand result in data set [1] is on record as “poor”.
